# According to patent publication US20070259014A1, “Compositions for and Methods for Treating Hiv” (VGX PHARMACEUTICALS, INC., priority 2003, published 2007):
# Read-outs that look alike come from different tables or passages of the source.
# Legend:
# [1] = molecular target: T1, human glucocorticoid receptor (Homo sapiens, UniProt P04150); details: cited from earlier work
# T1 sequence (P04150 1-777): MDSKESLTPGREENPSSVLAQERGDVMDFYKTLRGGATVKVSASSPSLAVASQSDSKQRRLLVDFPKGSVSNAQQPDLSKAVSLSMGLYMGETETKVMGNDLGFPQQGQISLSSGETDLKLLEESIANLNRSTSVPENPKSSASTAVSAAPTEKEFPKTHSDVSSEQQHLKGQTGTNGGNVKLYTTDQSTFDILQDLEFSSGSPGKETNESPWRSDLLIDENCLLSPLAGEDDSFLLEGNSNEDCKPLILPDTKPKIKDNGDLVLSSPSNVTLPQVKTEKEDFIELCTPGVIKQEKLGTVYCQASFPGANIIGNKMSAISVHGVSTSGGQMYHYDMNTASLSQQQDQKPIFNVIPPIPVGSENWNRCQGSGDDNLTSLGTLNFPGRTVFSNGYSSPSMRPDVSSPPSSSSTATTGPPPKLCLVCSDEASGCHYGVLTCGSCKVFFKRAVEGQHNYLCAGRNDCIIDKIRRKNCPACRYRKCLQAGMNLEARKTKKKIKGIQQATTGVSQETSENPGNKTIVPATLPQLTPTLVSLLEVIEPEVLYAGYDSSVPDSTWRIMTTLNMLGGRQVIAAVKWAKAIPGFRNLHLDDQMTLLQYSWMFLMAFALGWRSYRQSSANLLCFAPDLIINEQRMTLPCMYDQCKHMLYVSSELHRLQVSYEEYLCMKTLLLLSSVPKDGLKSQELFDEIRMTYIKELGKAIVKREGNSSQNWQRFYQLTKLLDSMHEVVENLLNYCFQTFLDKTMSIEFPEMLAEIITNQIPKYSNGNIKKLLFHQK
# [2] = Sarkar, 2002; cited from earlier work
# Progesterone = Progesterone (Homo sapiens, UniProt P06401); details: comparative activity, Table 2; cited from earlier work
# Progesterone, sequence (P06401 whole entry): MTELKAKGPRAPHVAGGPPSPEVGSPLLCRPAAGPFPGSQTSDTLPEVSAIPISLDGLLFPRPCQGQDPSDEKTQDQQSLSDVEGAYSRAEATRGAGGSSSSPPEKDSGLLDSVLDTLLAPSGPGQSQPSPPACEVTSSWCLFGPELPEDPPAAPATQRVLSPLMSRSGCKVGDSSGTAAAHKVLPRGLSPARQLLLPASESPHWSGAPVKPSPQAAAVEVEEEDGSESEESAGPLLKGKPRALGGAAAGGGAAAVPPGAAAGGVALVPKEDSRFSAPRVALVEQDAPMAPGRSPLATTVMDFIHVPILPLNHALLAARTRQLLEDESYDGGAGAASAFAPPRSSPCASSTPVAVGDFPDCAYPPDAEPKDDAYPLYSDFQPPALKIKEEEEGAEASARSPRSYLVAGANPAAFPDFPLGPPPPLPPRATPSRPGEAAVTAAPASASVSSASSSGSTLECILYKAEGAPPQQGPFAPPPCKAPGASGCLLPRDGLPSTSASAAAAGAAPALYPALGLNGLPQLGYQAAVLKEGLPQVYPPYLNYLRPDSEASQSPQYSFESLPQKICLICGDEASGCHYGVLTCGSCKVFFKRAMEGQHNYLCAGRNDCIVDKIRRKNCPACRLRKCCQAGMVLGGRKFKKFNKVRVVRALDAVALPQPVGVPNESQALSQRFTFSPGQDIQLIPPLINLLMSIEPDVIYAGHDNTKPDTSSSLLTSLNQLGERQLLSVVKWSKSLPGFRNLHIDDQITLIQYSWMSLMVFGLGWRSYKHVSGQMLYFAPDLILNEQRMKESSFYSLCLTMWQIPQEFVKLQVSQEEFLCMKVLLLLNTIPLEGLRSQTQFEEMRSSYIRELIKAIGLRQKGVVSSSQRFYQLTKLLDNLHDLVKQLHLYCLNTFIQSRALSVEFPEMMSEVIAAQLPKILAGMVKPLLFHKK
# [3] = molecular target: T1, human glucocorticoid receptor; assay: Relative binding affinity to the human glucocorticoid receptor / anti-glucocorticoid activity; details: comparative ratio of anti-glucocorticoid to anti-progesterone activity
# [4] = tested on: laboratory adapted and clinical isolate viruses (HIV); assay: Inhibition of viral replication, several laboratory adapted and clinical isolate viruses; type: cell-based; details: mifepristone 40-1000 nM (17-430 ng/ml)
# HIV-1 BaL = assay: Anti-viral effect in vitro (Table 1), HIV-1 BaL; type: cell-based; details: Lab isolate, R5 (NSI)
# HIV-1 89.6 = assay: Anti-viral effect in vitro (Table 1), HIV-1 89.6; type: cell-based; details: HIV-1 89.6, Lab isolate, R5X4
# HIV-1 Ada = assay: Anti-viral effect in vitro (Table 1), HIV-1 Ada; type: cell-based; details: Lab isolate, R5 (NSI)
# HIV-1 NL43 = assay: Anti-viral effect in vitro (Table 1), HIV-1 NL43; type: cell-based; details: HIV-1 NL43, Lab isolate
# 91US054 = assay: Anti-viral effect in vitro (Table 1), 91US054; type: cell-based, HIV; details: 91US054, Clinical isolate, R5 (NSI)
# 91US056 = assay: Anti-viral effect in vitro (Table 1), 91US056; type: cell-based, HIV; details: 91US056, Clinical isolate, R5 (NSI)
# 92US657 = assay: Anti-viral effect in vitro (Table 1), 92US657; type: cell-based, HIV; details: 92US657, Clinical isolate, R5 (NSI)
# 92US660 = assay: Anti-viral effect in vitro (Table 1), 92US660; type: cell-based, HIV; details: 92US660, Clinical isolate, R5 (NSI)
# 92US714 = assay: Anti-viral effect in vitro (Table 1), 92US714; type: cell-based, HIV; details: 92US714, Clinical isolate, R5 (NSI)
# 92US723 = assay: Anti-viral effect in vitro (Table 1), 92US723; type: cell-based, HIV; details: 92US723, Clinical isolate, R5X4
# 92US727 = assay: Anti-viral effect in vitro (Table 1), 92US727; type: cell-based, HIV; details: 92US727, Clinical isolate, R5 (NSI)
# U1 = assay: Anti-viral effect in vitro (Table 1), U1 infected cell; type: cell-based, HIV
# J1.1 = assay: Anti-viral effect in vitro (Table 1), J1.1 infected cell; type: cell-based, HIV
# LL58 = assay: Anti-viral effect in vitro (Table 1), LL58 infected cell; type: cell-based, HIV
# ACH-2 = assay: Anti-viral effect in vitro (Table 1), ACH-2 infected cell; type: cell-based, HIV
# OM-10.1 = assay: Anti-viral effect in vitro (Table 1), OM-10.1 infected cell; type: cell-based, HIV
# [5] = tested on: HIV+ Patient 1 infected PBMCs; assay: Anti-viral effect in vitro (Table 1), HIV+ Patient 1 infected PBMCs; type: cell-based
# [6] = tested on: HIV+ Patient 2 infected PBMCs; assay: Anti-viral effect in vitro (Table 1), HIV+ Patient 2 infected PBMCs; type: cell-based
# [7] = tested on: HIV+ Patient 3 infected PBMCs; assay: Anti-viral effect in vitro (Table 1), HIV+ Patient 3 infected PBMCs; type: cell-based
# [8] = tested on: HIV+ Patient 4 infected PBMCs; assay: Anti-viral effect in vitro (Table 1), HIV+ Patient 4 infected PBMCs; type: cell-based
# [9] = tested on: wild type HIV-1 NL43 virus
# [10] = tested on: alpha 1-acid glycoprotein (AAG); details: in-vitro studies; cited from earlier work
compound,measurement,setting,value
C[C@]12CCC(=O)C=C1CC[C@@H]1[C@@H]2[C@@H](O)C[C@@]2(C)[C@H]1CC[C@]2(O)C(=O)CO [cortisol],relative binding affinities to the human glucocorticoid receptor,[1],23%
CC#C[C@]1(C)CCC2C3CCC4=CC(=O)CCC4=C3[C@@H](c3ccc(NC)cc3)C[C@@]21C (some centres unmarked),Serum levels of the metabolite compared with Mifepristone,[2],always exceeded those of Mifepristone
same,relative binding affinities to the human glucocorticoid receptor,[1],61%
same,Anti-Glucocorticoid,"[1]; comparative activity, Table 2",61%
same,Anti-Progesterone,Progesterone,21%
same,A-G/A-P,[3],290%
"11β-(4dimethylaminophenyl)-17β-hydroxy-17-α-(propyl-lynyl)-4,9-dien-3-one [Mifepristone]",inhibition of viral replication,[4],> 90%
same,Maximum % Reduction in Viral Replication By Mifepristone in PBMCs,HIV-1 BaL,>90%
same,Maximum % Reduction in Viral Replication By Mifepristone in PBMCs,HIV-1 89.6,>90%
same,Maximum % Reduction in Viral Replication By Mifepristone in PBMCs,HIV-1 Ada,>90%
same,Maximum % Reduction in Viral Replication By Mifepristone in PBMCs,HIV-1 NL43,>90%
same,Maximum % Reduction in Viral Replication By Mifepristone in PBMCs,91US054,>95%
same,Maximum % Reduction in Viral Replication By Mifepristone in PBMCs,91US056,>95%
same,Maximum % Reduction in Viral Replication By Mifepristone in PBMCs,92US657,>80%
same,Maximum % Reduction in Viral Replication By Mifepristone in PBMCs,92US660,>90%
same,Maximum % Reduction in Viral Replication By Mifepristone in PBMCs,92US714,>90%
same,Maximum % Reduction in Viral Replication By Mifepristone in PBMCs,92US723,>90%
same,Maximum % Reduction in Viral Replication By Mifepristone in PBMCs,92US727,>95%
same,Maximum % Reduction in Viral Replication By Mifepristone in PBMCs,U1,>95%
same,Maximum % Reduction in Viral Replication By Mifepristone in PBMCs,J1.1,>95%
same,Maximum % Reduction in Viral Replication By Mifepristone in PBMCs,LL58,>90%
same,Maximum % Reduction in Viral Replication By Mifepristone in PBMCs,ACH-2,>95%
same,Maximum % Reduction in Viral Replication By Mifepristone in PBMCs,OM-10.1,>95%
same,Maximum % Reduction in Viral Replication By Mifepristone in PBMCs,[5],>95%
same,Maximum % Reduction in Viral Replication By Mifepristone in PBMCs,[6],>95%
same,Maximum % Reduction in Viral Replication By Mifepristone in PBMCs,[7],>90%
same,Maximum % Reduction in Viral Replication By Mifepristone in PBMCs,[8],>95%
same,mifepristone concentrations that consistently resulted in inhibition of HIV replication,[9]; FIG. 2,40 to 1000 nM
same,mifepristone concentrations that consistently resulted in inhibition of HIV replication,"[9]; FIG. 2, nM converted to ng/ml",17 to 430 ng/mL
same,Inhibition of viral replication by mifepristone,"[9]; U937 cells, different concentrations of mifepristone",dose-dependent
same,IC50,"[9]; read-out: IC50 of mifepristone, inhibition of HIV replication in vitro, FIG. 2, U937 cells infected with wild type HIV-1 NL43",8 nM
same,Mifepristone concentrations that saturate AAG,[10],exceeding 2.5 microM
